Assay results taken from patent US6462072B1, “Cyclic ester or amide derivatives” (GPI NIL Holdings, Inc., priority 1998, dated 2002).

Molecular target: FKBP (Homo sapiens, UniProt P62942)
Experiment: Ki test procedure: inhibition of peptidyl-prolyl isomerase (rotamase) activity, chymotrypsin-coupled assay
Assay type: biochemical
Details: read-out: Ki (apparent Ki, rotamase inhibition)
From the text: Inhibition of the peptidyl-prolyl isomerase (rotamase) activity of the inventive compounds can be evaluated by known methods described in the literature (Harding, M. W. et al. Nature 341: 758-760 (1989); Holt et al. J. Am. Chem. Soc. 115: 9923-9938). These values are obtained as apparent Ki's and are presented in Table I. The cis-trans isomerization of an alanine-proline bond in a model substrate, N-succinyl-Ala-Ala-Pro-Phe-p-nitroanilide, is monitored spectro-photometrically in a chymotrypsin-coupled assay, which releases para-nitroanilide from the trans form of the substrate. The inhibition of this reaction caused by the addition of different concentrations of inhibitor is determined, and the data is analyzed as a change in first-order rate constant as a function of inhibitor concentration to yield the apparent Kivalues.
In a plastic cuvette are added […] of ice cold assay buffer (25 mM HEPES, pH 7.8, 100 mM NaCl), […] of FKBP (2.5 mM in 10 mM Tris-Cl pH 7.5, 100 mM NaCl, 1 mM dithiothreitol), […] of chymotrypsin (50 mg/mL in 1 mM HCl) and 10 mL of test compound at various concentrations in dimethyl sulfoxide. […]
The absorbance at 390 nm versus time is monitored for 90 sec using a spectrophotometer and the rate constants are determined from the absorbance versus time data files.

FKBP, sequence (P62942 whole entry): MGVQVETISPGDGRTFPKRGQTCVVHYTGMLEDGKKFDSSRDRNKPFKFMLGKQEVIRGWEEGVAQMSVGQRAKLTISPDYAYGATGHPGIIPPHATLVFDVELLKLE

Ki: 5.64 µM
SMILES: CCC(C)(C)C(=O)C(=O)N1CCC[C@H]1C(=O)OC1CCC(c2ccccc2)(c2ccccc2)CC1 [4,4-diphenylcyclohexl (2S)-1-(3,3-dimethyl-2-oxopentanoyl)-pyrrolidine-2-carboxylate]
